# In US5863913A, “Aromatic compound and pharmaceutical composition” (Kureha Chemical Industry Co., Ltd., priority 1996, dated 1999):
# Columns and labels:
# [1] = target: T1, angiotensin II receptor subtype 1 (AT1) (Oryctolagus cuniculus, UniProt P34976); test: Binding to receptors: angiotensin II receptor subtype 1 (AT1); design: species or system rabbits (adrenal glands); conditions: rabbit adrenal glands, tracer 3H-angiotensin II
# T1 construct: receptor : from adrenal glands in rabbits; from tissue; host or cells: rabbit adrenal glands
# T1 sequence (P34976 1-359): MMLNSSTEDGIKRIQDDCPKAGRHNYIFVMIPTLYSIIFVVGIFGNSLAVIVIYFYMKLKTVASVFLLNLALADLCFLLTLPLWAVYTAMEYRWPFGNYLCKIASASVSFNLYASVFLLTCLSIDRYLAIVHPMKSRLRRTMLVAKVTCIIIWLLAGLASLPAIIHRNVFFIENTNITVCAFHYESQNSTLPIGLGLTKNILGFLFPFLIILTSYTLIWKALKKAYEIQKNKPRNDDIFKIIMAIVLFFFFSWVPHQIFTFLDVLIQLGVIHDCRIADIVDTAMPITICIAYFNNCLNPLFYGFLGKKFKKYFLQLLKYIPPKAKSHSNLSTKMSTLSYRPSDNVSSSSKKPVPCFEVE
# Method: In this Example, the affinity to the angiotensin II receptor subtype 1 or subtype 2 was evaluated by a binding assay in accordance with the method described in Biochem. Pharmacol., 33, 4057-4062 (1984).
# Specifically, the measurement of the total binding in the presence of each drug was performed as follows:
# A mixture (final volume=0.25 ml) of a drug in a given concentration (the drug was dissolved in DMSO, and diluted to a double volume with a buffer attached to a drug discovery system to prepare a sample for the assay; 0.025 ml), a tracer (0.025 ml), and receptors (0.2 ml) was incubated [in the case of the angiotensin II receptor subtype 1 (AT1), at room temperature for 3 hours, and in the case of the subtype 2 (AT2), at 37° C. for 1 hour]. Then, the reaction mixture was filtered with suction (GF/C filter was used in AT1, and GF/B filter was used in AT2). The filter papers after filtration with suction (the tracer bound to the receptors) were counted by a γ-well counter (ARC-500, Aloka). The non-specific bindings were measured by repeating the above method, except that a large excess amount of a displacer was added. The specific binding of the drug in the given concentration was calculated by subtracting the non-specific binding from the total binding, respectively.
# receptor : from adrenal glands in rabbits
# tracer : ^3 Hangiotensin II
# [2] = Oral absorption (amount of compound in rat serum by HPLC, area under curve); type: in vivo, Sprague-Dawley female rats; conditions: single dosage 160 mg/kg in water, 0.5 to 24 hours, average of 3 rats
# Method: Twelve-week-old Sprague-Dawley female rats (3 rats per group) were bred for acclimation for a week. Then, the compounds of the present invention and a reference substrate were dissolved in water, and orally administered to the rats in a single dosage (160 mg/kg). After 0.5 hour, 1 hour, 2 hours, 4 hours, 6 hours, 8 hours, and 24 hours, the amounts of each compound (ng) per 1 ml of serum were measured using HPLC. Curves were obtained from the relation between an elapsed time after administration and the amount of the compound in serum at each elapsed time, respectively, and an average of the areas under the curves was calculated.
# As a reference substance, Compound No. 184 disclosed in Japanese Unexamined Patent Publication (Kokai) No. 8-48651 was used. Compound No. 184 corresponds to the compound of the formula (I) wherein R^1 =nBu, A=N, Z=C, R^2 =CO, R^3 =NC4 H8 O, R^4 =H, R^5 =Me, and R^6 =Me.
compound,measurement,setting,value
"CCCCC(=O)N(Cc1ccc(C(=O)OCCN2CCOCC2)cc1)c1cc(C(=O)N2CCOCC2)ccc1C(C)C [Compound No. 9, 3-N-[[[4-(2'-morpholinoethoxycarbonyl)phenyl]methyl]valeramido]-i-propylbenzoic acid morpholide]",inhibition at 100 µM,[1],13%
same,AUC at 24 h,[2],50300 ng·h/mL
"CCCCCCC(=O)N(Cc1ccc(C(=O)O)cc1)c1cc(C(=O)N2CCN(CCC)CC2)ccc1C(C)C [Compound No. 20, 3-N-[[(4-carboxyphenyl)methyl]n-heptanamido]-4-i-propylbenzoic acid 4'-n-propylpiperazide]",inhibition at 100 µM,[1],0%
same,AUC at 24 h,[2],183000 ng·h/mL
"CCCCC(=O)N(Cc1ccc(C(=O)OCCN(C)C)cc1)c1cc(C(=O)N2CCOCC2)ccc1C(C)C [Compound No. 6, 3-N-[[[4-(2'-dimethylaminoethoxycarbonyl)phenyl]methyl]valeramido]-4-i-propylbenzoic acid morpholide]",inhibition at 100 µM,[1],11%
same,AUC at 24 h,[2],34700 ng·h/mL
"CCCCC(=O)N(Cc1ccc(C(=O)O)cc1)c1cc(C(=O)N2CCN(CCC)CC2)ccc1C(C)C [Compound No. 19, 3-[[(4-carboxyphenyl)methyl]valeramido]-4-i-propylbenzoic acid 4'-n-propylpiperazide]",inhibition at 100 µM,[1],11%
same,AUC at 24 h,[2],172000 ng·h/mL
"CCCCC(=O)N(Cc1ccc(C(=O)OCCCN)cc1)c1cc(C(=O)N2CCOCC2)ccc1N(C)C [Compound No. 3, 3-N-[[[4-(3'-aminopropoxycarbonyl)phenyl]methyl]valeramido]-4-dimethylaminobenzoic acid morpholide]",inhibition at 100 µM,[1],0%
same,AUC at 24 h,[2],9530 ng·h/mL
"CCCCC(=O)N(Cc1ccc(C(=O)OCCCN(C)C)cc1)c1cc(C(=O)N2CCOCC2)ccc1C(C)C [Compound No. 7, 3-N-[[[4-(3'-dimethylamino-1'-propoxycarbonyl)phenyl]methyl]valeramido]-4-i-propylbenzoic acid morpholide]",inhibition at 100 µM,[1],14%
same,AUC at 24 h,[2],14000 ng·h/mL
"CCCCCCC(=O)N(Cc1ccc(C(=O)O)cc1)c1cc(C(=O)N2CCN(C)CC2)ccc1N(C)C [Compound No. 13, 3-[[(4-carboxyohenyl)methyl]n-heptanamido]-4-dimethylaminobenzoic acid 4'-methylpiperazide]",inhibition at 100 µM,[1],0%
same,AUC at 24 h,[2],1460 ng·h/mL
"CCCCC(=O)N(Cc1ccc(C(=O)OCCCN(C)C)cc1)c1cc(C(=O)N2CCOCC2)ccc1N(C)C [Compound No. 2, 4-dimethylamino-3-N-[[[4-(3'-dimethylaminopropoxycarbonyl)phenyl]methyl]valeramido]benzoic acid morpholide]",inhibition at 100 µM,[1],14%
same,AUC at 24 h,[2],10700 ng·h/mL
"CCCCC(=O)N(Cc1ccc(C(=O)O)cc1)c1cc(C(=O)N2CCN(C)CC2)ccc1C(C)C [Compound No. 15, 3-[[(4-carboxyphenyl)methyl]valeramido]-4-i-propylbenzoic acid 4'-methylpiperazide]",inhibition at 100 µM,[1],0%
same,AUC at 24 h,[2],5670 ng·h/mL
"CCCCC(=O)N(Cc1ccc(C(=O)OCCN(CC)CC)cc1)c1cc(C(=O)N2CCOCC2)ccc1C(C)C [Compound No. 8, 3-N-[[[4-(2'-diethylaminoethoxycarbonyl)phenyl]methyl]valeramido]-4-i-propylbenzoic acid morpholide]",inhibition at 100 µM,[1],11%
same,AUC at 24 h,[2],24600 ng·h/mL
"CCCCCCC(=O)N(Cc1ccc(C(=O)O)cc1)c1cc(C(=O)N2CCN(C)CC2)ccc1C(C)C [Compound No. 18, 3-N-[[(4-carboxyphenyl)methyl]n-heptanamido]-4-i-propylbenzoic acid 4'-methylpiperazide]",inhibition at 100 µM,[1],11%
same,AUC at 24 h,[2],12800 ng·h/mL
"CCCCC(=O)N(Cc1ccc(C(=O)OCCN(C)C)cc1)c1cc(C(=O)N2CCOCC2)ccc1N(C)C [Compound No. 1, 4-dimethylamino-3-N-[[[4-(2'-dimethylaminoethoxycarbonyl)phenyl]methyl]valeramido]benzoic acid morpholide]",inhibition at 100 µM,[1],10%
same,AUC at 24 h,[2],13900 ng·h/mL
"CCCCCCC(=O)N(Cc1ccc(C(=O)O)cc1)c1cc(C(=O)N2CCN(CCC)CC2)ccc1N(C)C [Compound No. 12, 4-dimethylamino-3-N-[[(4-carboxyphenyl)methyl]n-heptanamido]benzoic acid 4'-n-propyl piperazide]",inhibition at 100 µM,[1],0%
same,AUC at 24 h,[2],32200 ng·h/mL
